Experimental data taken from ChEMBL document CHEMBL1201862, “PubChem BioAssay data set” (2004).
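Five concentrations, 48 hours, 96-well plates. The concentration for 50% growth inhibition is given as GI50.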 Active and inactive are the calls of the source. Rule as the data show it: active = GI50 up to about 1.1 µM and inactive = higher.

Tests used:
Assay in all cases: inhibition of tumour cell growth, NCI panel, 48 h
A498 = test system: A498
HCC 2998 = test system: HCC 2998
SR = test system: SR
NCI-H226 = test system: NCI-H226
M14 = test system: M14
KM12 = test system: KM12
MDA-N = test system: MDA-N
UO-31 = test system: UO-31
UACC-62 = test system: UACC-62
PC-3 = test system: PC-3
MDA-MB-435 = test system: MDA-MB-435
SK-MEL-28 = test system: SK-MEL-28
NCI-H23 = test system: NCI-H23
HT-29 = test system: HT-29
TK-10 = test system: TK-10
A549 = test system: A549
SK-OV-3 = test system: SK-OV-3
MCF7 = test system: MCF7
HOP-92 = test system: HOP-92

Measured: GI50

O=C(O)c1cccc(S(=O)(=O)NN2C(=O)CSC2c2c(O)ccc3ccccc23)c1 (stereo not drawn)
inactive: A498 24.5 µM | HCC 2998 52.6 µM | SR 24.9 µM | NCI-H226 34.8 µM | M14 42.2 µM | KM12 41.3 µM | MDA-N 37.8 µM | UO-31 33.4 µM | UACC-62 27 µM | PC-3 33 µM | MDA-MB-435 37.6 µM | SK-MEL-28 26.4 µM | NCI-H23 21.7 µM | HT-29 29.9 µM | TK-10 > 100 µM | A549 41.5 µM | SK-OV-3 37.7 µM

Nc1cc(N2CCCC2)nc(=O)n1-c1ccccc1
inactive: HCC 2998 20.7 µM | SR > 100 µM | NCI-H226 54.2 µM | M14 > 100 µM | KM12 > 100 µM | PC-3 > 100 µM | MDA-MB-435 > 100 µM | SK-MEL-28 > 100 µM | NCI-H23 > 100 µM | HT-29 > 100 µM | TK-10 > 100 µM | MCF7 > 100 µM | A549 > 100 µM | HOP-92 > 100 µM

COc1c(O)cc2c(c1O)C(=O)C1=C(CCCC1)C2=O
inactive: A498 17.9 µM | HCC 2998 21.9 µM | SR 10.8 µM | NCI-H226 30.5 µM | M14 34.8 µM | KM12 20.2 µM | UO-31 7.24 µM | UACC-62 20.3 µM | PC-3 22.8 µM | MDA-MB-435 26.9 µM | SK-MEL-28 24 µM | NCI-H23 15.5 µM | HT-29 21.7 µM | TK-10 34.3 µM | MCF7 33.9 µM | A549 26.1 µM | SK-OV-3 19.8 µM | HOP-92 21.7 µM

COc1ccc(NC(S)=Nc2cccc(C)n2)cc1
inactive: A498 > 100 µM | HCC 2998 > 100 µM | SR > 100 µM | NCI-H226 > 100 µM | M14 > 100 µM | KM12 > 100 µM | UO-31 > 100 µM | UACC-62 > 100 µM | PC-3 > 100 µM | MDA-MB-435 > 100 µM | SK-MEL-28 > 100 µM | NCI-H23 84.5 µM | HT-29 > 100 µM | TK-10 > 100 µM | MCF7 > 100 µM | SK-OV-3 > 100 µM | HOP-92 39.5 µM

C=C1OC2OC(C)C(NC(=O)OCC(Cl)(Cl)Cl)C(OC(C)=O)C2O1 (stereo not drawn)
inactive: A498 > 100 µM | HCC 2998 > 100 µM | SR > 100 µM | NCI-H226 43.6 µM | M14 > 100 µM | KM12 > 100 µM | UO-31 > 100 µM | UACC-62 > 100 µM | PC-3 > 100 µM | MDA-MB-435 > 100 µM | SK-MEL-28 > 100 µM | NCI-H23 > 100 µM | HT-29 > 100 µM | TK-10 > 100 µM | MCF7 > 100 µM | A549 > 100 µM | SK-OV-3 > 100 µM | HOP-92 > 100 µM

CCOC(=O)c1ccc(Nc2nc3ccc(C(F)(F)F)cc3nc2-c2ccccc2)cc1
inactive: HCC 2998 84.1 µM | SR > 100 µM | NCI-H226 > 100 µM | M14 > 100 µM | KM12 > 100 µM | UO-31 > 100 µM | UACC-62 28.2 µM | PC-3 38 µM | MDA-MB-435 > 100 µM | SK-MEL-28 > 100 µM | NCI-H23 > 100 µM | HT-29 67.9 µM | TK-10 > 100 µM | MCF7 > 100 µM | A549 > 100 µM

Nc1ncnc2c1ncn2C1OC(COC2C(CO)OC(OC(C(=O)O)C(O)C(OP(=O)(O)O)C(O)C(=O)O)C(O)C2O)C(O)C1O (stereo not drawn)
inactive: A498 > 100 µM | HCC 2998 > 100 µM | SR 15.7 µM | NCI-H226 > 100 µM | M14 > 100 µM | KM12 > 100 µM | PC-3 > 100 µM | MDA-MB-435 > 100 µM | SK-MEL-28 > 100 µM | NCI-H23 > 100 µM | HT-29 > 100 µM | TK-10 > 100 µM | MCF7 > 100 µM | A549 > 100 µM | SK-OV-3 > 100 µM

CN(C)CCNc1ccc(NCCN(C)C)c2c1C(=O)c1ncsc1C2=O
inactive: A498 14.1 µM | HCC 2998 15 µM | SR 1.21 µM | NCI-H226 2.53 µM | M14 18.2 µM | KM12 11.4 µM | UO-31 15.2 µM | UACC-62 11.4 µM | PC-3 15.3 µM | MDA-MB-435 13.6 µM | SK-MEL-28 15.3 µM | NCI-H23 15.2 µM | HT-29 6.46 µM | TK-10 24.8 µM | MCF7 7.33 µM | A549 11.9 µM | SK-OV-3 18.8 µM | HOP-92 15.2 µM

Cc1cc2c(cc1Cl)S(=O)(=O)OC(c1ccc([N+](=O)[O-])cc1)=N2
inactive: A498 > 100 µM | HCC 2998 > 100 µM | SR > 100 µM | NCI-H226 > 100 µM | M14 > 100 µM | KM12 > 100 µM | UO-31 > 100 µM | UACC-62 > 100 µM | PC-3 > 100 µM | MDA-MB-435 > 100 µM | SK-MEL-28 > 100 µM | HT-29 > 100 µM | TK-10 > 100 µM | MCF7 > 100 µM | A549 > 100 µM | SK-OV-3 > 100 µM | HOP-92 > 100 µM

CN1C(=O)C(=Cc2ccc(Br)cc2)C(=O)N(C)C1=O
inactive: A498 > 100 µM | HCC 2998 > 100 µM | NCI-H226 > 100 µM | M14 > 100 µM | KM12 > 100 µM | UO-31 > 100 µM | UACC-62 > 100 µM | PC-3 > 100 µM | MDA-MB-435 > 100 µM | SK-MEL-28 > 100 µM | NCI-H23 > 100 µM | TK-10 > 100 µM | MCF7 > 100 µM | A549 > 100 µM | SK-OV-3 > 100 µM | HOP-92 > 100 µM

Cc1cc2c(cc1Cl)SC(NNC(=O)c1ccco1)=NS2(=O)=O
inactive: A498 > 10 µM | HCC 2998 > 10 µM | NCI-H226 > 10 µM | M14 > 10 µM | KM12 > 10 µM | MDA-N > 10 µM | UO-31 > 10 µM | UACC-62 > 10 µM | PC-3 > 10 µM | MDA-MB-435 > 10 µM | SK-MEL-28 > 10 µM | NCI-H23 > 10 µM | HT-29 > 10 µM | TK-10 > 10 µM | MCF7 > 10 µM | A549 > 10 µM | SK-OV-3 > 10 µM

CC1(C)[N+]([O-])=[N+]([O-])C1(C)Br (stereo not drawn)
inactive: HCC 2998 > 100 µM | SR 91 µM | NCI-H226 > 100 µM | M14 > 100 µM | KM12 > 100 µM | UO-31 > 100 µM | UACC-62 > 100 µM | PC-3 > 100 µM | MDA-MB-435 > 100 µM | SK-MEL-28 > 100 µM | NCI-H23 > 100 µM | HT-29 > 100 µM | TK-10 > 100 µM | MCF7 > 100 µM | A549 > 100 µM | SK-OV-3 > 100 µM

Nc1cc(Cl)ccc1SSc1ccc(Cl)cc1N
inactive: SR 4.32 µM | NCI-H226 2.94 µM | M14 8.65 µM | KM12 9.51 µM | UO-31 7 µM | UACC-62 2.88 µM | PC-3 5.7 µM | MDA-MB-435 12.9 µM | SK-MEL-28 15.9 µM | NCI-H23 5.61 µM | HT-29 16.1 µM | TK-10 20.2 µM | MCF7 3.85 µM | A549 23.1 µM | SK-OV-3 15.7 µM | HOP-92 41.7 µM

Cc1ccc(S(=O)(=O)N/N=C2\C(=O)C3CC2C(Cl)C3Cl)cc1 (stereo not drawn)
inactive: A498 > 100 µM | HCC 2998 > 100 µM | SR > 100 µM | NCI-H226 > 100 µM | M14 > 100 µM | UO-31 > 100 µM | UACC-62 > 100 µM | SK-MEL-28 > 100 µM | NCI-H23 > 100 µM | HT-29 > 100 µM | TK-10 > 100 µM | A549 > 100 µM | SK-OV-3 > 100 µM | HOP-92 70.8 µM

Clc1cc2ccccc2c2ccccc12
inactive: A498 > 100 µM | HCC 2998 41 µM | SR 30.8 µM | NCI-H226 > 100 µM | M14 31.5 µM | KM12 47.9 µM | UO-31 97.3 µM | UACC-62 62.4 µM | PC-3 50.2 µM | MDA-MB-435 28.2 µM | SK-MEL-28 46.2 µM | NCI-H23 81.5 µM | HT-29 32.4 µM | TK-10 > 100 µM | MCF7 31.7 µM | A549 44 µM | HOP-92 38.5 µM

CSc1[nH]cnc1C(N)=S
inactive: A498 > 100 µM | NCI-H226 > 100 µM | M14 > 100 µM | KM12 > 100 µM | MDA-N > 100 µM | UO-31 > 100 µM | UACC-62 > 100 µM | PC-3 > 100 µM | MDA-MB-435 > 100 µM | SK-MEL-28 > 100 µM | NCI-H23 > 100 µM | HT-29 > 100 µM | TK-10 > 100 µM | MCF7 > 100 µM | A549 > 100 µM | SK-OV-3 > 100 µM

N=C(CC/C(N)=N/O)NO
inactive: A498 > 100 µM | HCC 2998 > 100 µM | SR > 100 µM | NCI-H226 > 100 µM | M14 38.7 µM | KM12 > 100 µM | MDA-N > 100 µM | UO-31 > 100 µM | UACC-62 > 100 µM | PC-3 > 100 µM | MDA-MB-435 > 100 µM | SK-MEL-28 > 100 µM | NCI-H23 > 100 µM | HT-29 > 100 µM | TK-10 > 100 µM | A549 > 100 µM | HOP-92 > 100 µM
